Where a SMILES comes first, the peptide text is derived from it. [ ]: non-standard residue; d: D form. The star is where a group is joined. X1 = FC(F)(F)C(F)(F)C(F)(F)C(F)(F)C(F)(F)C(F)(F)CCCOCCOCCOCCN*
Columns and labels:
[1] = system: U87 human glioma cells tumor xenografted on the CAM; assay: PIGE/RBS quantification of fluorine in sections of U87 glioma tumor implanted on the CAM after intravascular injection of fluorinated tracer; assay type: in vivo, chicken; conditions: for Average fluorine concentration, pathological tissue, Tumor: FDG 1.53 M; for Average fluorine concentration, pathological tissue, Tumor / Average fluorine concentration, pathological tissue, tumor section (surrounding tissue) / Average fluorine concentration, pathological tissue, capillaries of tumor section: sacrifice 6 h after injection, PIGE, per g dry mass
Experimental: (§1) In preparation for the intravascular injection, 274 mg of FDG is dissolved in 1 mL sterile PBS. For the polyfluorinated glucose solution, 10 mg of the probe was added to 1 mL of polypropylene glycol (MW = 400 g/mol). F13-CBO-P11 solutions were prepared in sterile PBS. For the latter, solutions were obtained by the addition of 20 mg and 35 mg of peptide in 1 mL sterile PBS.
U87 human glioma cells (ATCC) were selected for the study as an established model for malignant gliomas that form highly vascularized tumors. Cells were maintained in culture using Dulbecco's modified Eagle's medium (DMEM) with 10% FBS, L-glutamine (2 mmol L^−1), and antibiotics (penicillin 50 UI mL^−1, streptomycin 50 μg mL^−1). Cell culture was performed in a 37 °C incubator with humidified atmosphere and 5% CO2. Cells were grown to confluence, harvested after trypsinization, and re-suspended in serum-free DMEM for implantation.
(§2) Fertilized chicken eggs were incubated at 37 °C in a humidified atmosphere. On day 4 of incubation, a window was made in the shell in order to visualize the chorio allantoïc membrane (CAM). On embryonic day 10, in the tumor group, a ring was put on the CAM and U87 glioma cells (5 million cells per egg suspended in 20 μL of medium) were deposited on the CAM within the ring after gentle laceration of the surface. In the other group, a nylon grid was put on the CAM to allow normal tissue to grow on the grid. After 7 days of implantation (embryonic day 17), FDG, polyfluorinated glucose and F13-CBO-P11 solutions were then injected in a blood vessel of the CAM of each egg (100 μL per embryo). Embryos were sacrificed 6 hours after injection. All samples were removed and snap-frozen in liquid nitrogen-chilled isopentane at −160 °C. CAM samples and normal tissue (S1, Scheme 1) coming from nylon grid were then put on targets (2 mm-thick and 20 mm-diameter aluminium target with a 5 mm-hole in the centre) and freeze-dried during 3 days at−30 °C in a cryostat (CM3050S, Leica Microsystems). Tumors were conserved at −80 °C until sectioning. For tumor tissue, successive serial sections (at 100, 200 and 300 μm) were obtained from the CAM to the tumor (S2 to S4, Scheme 1) using the cryostat, put on targets and freeze-dried. After sample preparation, microphotographs were taken to monitor the experiment.
(§3) Particle Induced γ-ray Emission (PIGE) and Rutherford Backscattering Spectrometry (RBS) were performed simultaneously to determine trace elements quantitative distribution, such as F and Fe, and major element as C, N, and O determination, respectively (Figure1). Analyses were performed with proton beam energy at 3.4 MeV in order to benefit from a high cross section for the nuclear reaction for fluorine. Analyses were realized on zones of typically 850 × 850 μm in a scanning mode of the proton beam. The beam was focused onto the sample surface to a spot of 5 μm in diameter, resulting in a proton beam current of 500 pA as measured with a Faraday cup below the sample. Characteristics gamma rays emitted from elements of the target were detected with an ultralow energy planar germanium detector (surface of the Ge crystal is 100 mm², thickness 10 mm) placed at 45° from incident beam. The γ-ray detector was covered by a 100 μm thick carbon filter (hole 0.2% of the total filter surface), to protect the γ-ray detector from backscattered particles. The RBS measurements were performed using a PIPS detector (passivated implanted planar silicon) placed at 135° from the incident beam direction.
(§4) CaF2 micromatter standard (certified material from NIST) and a PVDF film (polyvinylidene difluoride, 25 μm thick) were used as external standard in order to verify the quantification process. γ-ray emission data were analyzed with the Supavisio software to create mask of interesting areas of selected chemical elements. RBS data were analyzed with SIMNRA code.
The quantification of fluorine was performed by comparative analysis with reference standard. […]

[2] = system: U87 human glioma cells tumor xenografted on the CAM; assay: as above; assay type: in vivo, chicken; conditions: Sample 2, section S1 (tumor section); FDG 0.77 M in PBS, 100 μL per embryo, sacrifice 6 h after injection; PIGE; per g dry mass
[3] = system: chicken chorioallantoic membrane (CAM); assay: PIGE/RBS quantification of fluorine in normal CAM tissue and capillaries after intravascular injection of fluorinated tracer; assay type: in vivo; conditions: for Average fluorine concentration, physiological tissue, Capillaries / Average fluorine concentration, physiological tissue, CAM (surrounding tissue): 100 μL per embryo, sacrifice 6 h after injection, PIGE
Experimental: as §1, §2, §3, §4
The quantification of fluorine was performed by comparative analysis with reference standard. PVDF films were analyzed in order to simulate the composition and thickness of biological samples. PyMCA software was used to fit the 110 keV γ peak on PIGE spectra on a PVDF film and biological samples. The intensity of the peak in the PVDF was used to normalize yield in samples [14, 16].
The combination of PIGE and RBS quantitative data were used for mass normalization of y-ray emission, leading to element concentrations expressed in terms of μg of element per g of dry mass sample. […]

[4] = Sample 3, section S1 (CAM sample, no tumor), FDG 1.53 M in PBS, per g dry mass
[5] = Sample 6, serial tumor section S2, 20 mM in PBS, 100 μL per embryo
[6] = Sample 7, serial tumor section S2, 35 mM in PBS, 100 μL per embryo
[7] = Sample 8, section S1 (CAM sample, no tumor), 35 mM in PBS, per g dry mass

Compound: O=C[C@H]([18F])[C@@H](O)[C@H](O)[C@H](O)CO [FDG, 2-deoxy-2-[18F]fluoro-D-glucose]
- Average fluorine concentration, pathological tissue, Tumor ([1]; Sample 3, serial tumor section S2, 100 μL per embryo): 1640±170 μg/g
- Average fluorine concentration, pathological tissue, Tumor ([1]; Sample 3, serial tumor section S3, 100 μL per embryo): 1950±240 μg/g
- Average fluorine concentration, pathological tissue, Tumor ([1]; Sample 3, serial tumor section S4, 100 μL per embryo): 1470±140 μg/g
- Average fluorine concentration, pathological tissue, Tumor [2]: 1570±180 μg/g
- Ratio of fluorine concentrations between capillaries and tissues ([3]; FDG 0.77 and 1.53 M): close to one
- Average fluorine concentration within capillaries as well as in surrounding tissues (homogeneous distribution) ([3]; FDG 0.77 and 1.53 M, overall average of Table 1): about 1600 μg/g
- Average fluorine concentration, physiological tissue, CAM ([3]; Sample 1, section S1 (CAM sample, no tumor), FDG 1.53 M in PBS, 100 μL per embryo into CAM blood vessel, embryonic day 17, sacrifice 6 h after injection, freeze-dried, PIGE 3.4 MeV, per g dry mass): 1560±180 μg/g
- Average fluorine concentration, physiological tissue, Capillaries ([3]; Sample 1, section S1 (CAM sample, no tumor), FDG 1.53 M in PBS, per g dry mass): 960±100 μg/g
- Average fluorine concentration, physiological tissue, CAM (surrounding tissue) [3, 4]: 1820±210 μg/g
- Average fluorine concentration, physiological tissue, Capillaries [3, 4]: 1460±170 μg/g

Compound: CC[C@H](C)[C@@H]1NC(=O)[C@H](Cc2c[nH]cn2)NC(=O)[C@H](CCC(N)=O)NC(=O)CNC(=O)[C@H](CCC(N)=O)NC(=O)[C@H](Cc2c[nH]cn2)NC(=O)[C@@H]2CCCN2C(=O)[C@H](CCCCN)NC(=O)[C@H]([C@@H](C)CC)NC(=O)[C@H](CCCNC(=N)N)NC(=O)[C@H](CCSC)NC(=O)[C@H]([C@@H](C)CC)NC(=O)[C@H](CCC(N)=O)NC(=O)[C@@H]2CCCN2C(=O)[C@@H](Cc2ccccc2)NC(=O)[C@H](CCC(=O)NCCOCCOCCOCCCC(F)(F)C(F)(F)C(F)(F)C(F)(F)C(F)(F)C(F)(F)F)NC(=O)CNC1=O [Compound F13-CBO-P11] (cyclo(E(X1)[dF]PQIMRIKPHQGQHIG))
- Average fluorine concentration, pathological tissue, tumor section (surrounding tissue) ([1]; Sample 6, serial tumor section S1, 20 mM in PBS, 100 μL per embryo (0.49 mg fluorine)): 450±35 μg/g
- Average fluorine concentration, pathological tissue, capillaries of tumor section ([1]; Sample 6, serial tumor section S1, 20 mM in PBS, 100 μL per embryo): 610±70 μg/g
- Average fluorine concentration, pathological tissue, capillaries of tumor section [1, 5]: 360±50 μg/g
- Average fluorine concentration, pathological tissue, tumor section (surrounding tissue) [1, 5]: 270±20 μg/g
- Average fluorine concentration, pathological tissue, tumor section (surrounding tissue) ([1]; Sample 7, serial tumor section S1, 35 mM in PBS, 100 μL per embryo (0.85 mg fluorine)): 345±30 μg/g
- Average fluorine concentration, pathological tissue, capillaries of tumor section ([1]; Sample 7, serial tumor section S1, 35 mM in PBS, 100 μL per embryo): 650±70 μg/g
- Average fluorine concentration, pathological tissue, capillaries of tumor section [1, 6]: 460±45 μg/g
- Average fluorine concentration, pathological tissue, tumor section (surrounding tissue) [1, 6]: 215±35 μg/g
- Dose dependence of fluorine uptake ([1]; sample 6 (20 mM) versus sample 7 (35 mM)): not dose dependant
- Fold higher fluorine concentration in capillaries than in surrounding tissue, tumor sections ([1]; samples 6 and 7, 20 and 35 mM): 1.5 times
- Average fluorine concentration, physiological tissue, CAM (surrounding tissue) [3, 7]: 2050±175 μg/g
- Average fluorine concentration, physiological tissue, Capillaries [3, 7]: 6570±555 μg/g
- Fold higher fluorine concentration in capillaries than in surrounding tissue, normal tissue ([3]; sample 8, 35 mM): 3 times
